What was measured:
SST2 [1] = molecular target: T1, SST2 (Homo sapiens (Human), UniProt P30874); assay: Competitive binding assay (IC50) on HEK-SST2 cell membranes with 125I-Tyr-somatostatin-14; conditions: 1 hour at 37° C., radioligand [^125I]-Tyr-somatostatin-14 0.05 nM, mean ± SD
Description: Quantification of the free and bound radioligand was performed in a gamma-counter. The data were analyzed by GraphPad Prism 9 Software and the IC50 values were determined using the “log(inhibitor) vs response” equation based on the specific binding=total−non-specific binding.
Table 18. IC50 values were determined by competitive assays. […] The results are expressed as means standard deviation (SD) from a minimum of two separate experiments, each in triplicates.

[2] = Lipophilicity, log D by shake-flask method (1-octanol/PBS pH 7.4); format: physicochemical; conditions: pH 7.4, shake-flask, Table 17, mean ± SD, read-out: log D(O/PBS pH 7.4)
Outline: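 Radiotracer shaken 30 min in pre-saturated 1-octanol/PBS pH 7.4 (1:1), then centrifuged for phase separation. Radioactivity in each phase measured by gamma counting; log D reported as the average log of organic/PBS activity ratio.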

in vivo = conditions: iv, 20 umol, total radioactivity
Description: The tumors were allowed to grow for 1-3 weeks before commencement of the experiments.
The mice were randomly distributed in groups and euthanized at 1 and at 4 hours post-injection. The organs of interest were collected, rinsed, blotted, weighed and counted in a gamma counter. The results are expressed as percentage of injected activity per gram (% IA/g), representing the mean±standard deviation of n=4-8 mice per group and they were obtained by extrapolation from counts of an aliquot taken from the injected solution as standard.
The mice were randomly distributed in groups, injected with the radiotracer under investigation and euthanized at 1 and at 4 hours post-injection of the radiotracers under investigation. The organs of interest were collected, rinsed, blotted, weighed and counted in a gamma counter. The results are expressed as percentage of injected activity per gram (% IA/g), representing the mean±standard deviation of all mice per group and they were obtained by extrapolation from counts of an aliquot taken from the injected solution as standard.
The mice were randomly distributed in groups and euthanized at 4 hours post-injection. The organs of interest were collected, rinsed, blotted, weighed, and their respective radioactivity was counted in a gamma counter.

SST2 [3] = molecular target: T1, SST2; assay: Saturation binding on HEK-SST2 cell membranes; conditions: 37° C.
Description: Cell Membrane Preparation: HEK-SST2 cells were grown to confluence, mechanically disaggregated, washed with PBS (pH 7.4) and re-suspended in 20 mM of homogenization Tris buffer (pH 7.5) containing 1.3 mM EDTA, 0.25 M sucrose, 0.7 mM bacitracin, 5 μM soybean trypsin inhibitor, and 0.7 mM PMSF. The cells were homogenized using Ultra-Turrax, and the homogenized suspension was centrifuged at 500×g for 10 min at 4° C. The supernatant was collected in centrifuge tubes (Beckman Coulter Inc., Brea, CA, USA). This procedure was then repeated 5 times. The collected supernatant was centrifuged in an ultra-centrifuge (Beckman) at 4° C. for 55 min at 49,000×g. Then, the pellet was re-suspended in 10 mM ice-cold HEPES buffer (pH 7.5), aliquoted, and stored at −80° C. The protein concentration of those membrane suspensions was determined by the Bradford method, BSA as the standard.
Saturation Experiment: The association profiles of [^61Cu]Cu-NODAGA-LM3 was studied at different concentrations, ranging from 0.075 to 10 nM, in HEK-SST2 cell membranes at 37° C. Each assay tube contained 170 μL of binding buffer (20 mM HEPES, pH 7.4, containing 4 mM μgCl2, 0.2% BSA, 20 μg/L bacitracin, 20 μg/L PMSF and 200,000 KIU/L aprotinin). […] The dissociation constant (KD) and maximal binding capacity (Bmax) values were calculated using GraphPad Software Inc., Prism 7, San Diego, CA, USA (FIG. 37)

HEK-SST2 xenografts = assay: PET/CT imaging in HEK-SST2 xenografted mice; format: in vivo; conditions: 0-60 min and 240 min
Description: Tumor xenografted mice were injected intravenously into the tail vein with the tested radiotracer. […] Mice were anesthetized with 1.5% isoflurane and dynamic PET scans were acquired during 1 hour upon injection of the radiotracer. The mice were euthanized by CO2 at 4 hours p.i., the bladder was mechanically emptied, and static PET scans were acquired for 30 min. PET images were acquired using the R-CUBE PET scanner system (MOLECUBES, Gent, Belgium) and they were decay corrected and reconstructed with the VivoQuant software version 4.0. The CT was imaged supine, headfirst, using the NanoSPECT/CT™ scanner (Bioscan Inc.). Topograms and helical CT scans of the whole mouse were first acquired using the following parameters: X-ray tube current: 177 μA, X-ray tube voltage 45 kVp, 90 seconds and 180 frames per rotation, pitch 1. CT images were reconstructed using CTReco (version r1.146), with a standard filtered back projection algorithm (exact cone beam) and post-filtered (RamLak, 100% frequency cut-off), resulting in a pixel size of 0.2 mm. Co-registered PET/CT images were visualized using maximum intensity projection (MIP) with InVivoScope (version 1.43, Bioscan Inc.). The results are presented in the Examples that follow.

T1 sequence (P30874 whole entry): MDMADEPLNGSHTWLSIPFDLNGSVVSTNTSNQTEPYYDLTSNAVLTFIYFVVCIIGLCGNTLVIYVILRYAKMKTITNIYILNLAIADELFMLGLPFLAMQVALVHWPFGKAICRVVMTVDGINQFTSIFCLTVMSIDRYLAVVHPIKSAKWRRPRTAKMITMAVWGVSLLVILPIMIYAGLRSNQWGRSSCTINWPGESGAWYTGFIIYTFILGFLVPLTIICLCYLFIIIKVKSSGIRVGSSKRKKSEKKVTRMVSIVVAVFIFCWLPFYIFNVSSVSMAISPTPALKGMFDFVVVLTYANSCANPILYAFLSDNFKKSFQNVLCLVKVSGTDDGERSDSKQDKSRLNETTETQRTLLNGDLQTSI

Compound CC(O)C1NC(=O)C(CCCCN)NC(=O)C(Cc2ccc(NC(N)=O)cc2)NC(=O)C(Cc2ccc(O)cc2)NC(=O)C(NC(=O)C(Cc2ccc(Cl)cc2)NC(=O)CCC(C(=O)O)N2CCN(CC(=O)O)CCN(CC(=O)O)CC2)CSSCC(C(=O)NC(Cc2ccc(O)cc2)C(N)=O)NC1=O (stereo not drawn) [NODAGA-LM3] has an IC50 (SST2 [1]) of 17.8 ± 2 nM.

Compound C[C@@H](O)[C@@H]1NC(=O)[C@H](CCCCN)NC(=O)[C@@H](Cc2ccc(NC(N)=O)cc2)NC(=O)[C@H](Cc2ccc(O)cc2)NC(=O)[C@H](NC(=O)[C@H](Cc2ccc(Cl)cc2)NC(=O)CCC(C(=O)O)N2CCN(CC(=O)O)CCN(CC(=O)O)CC2)CSSC[C@@H](C(=O)N[C@H](Cc2ccc(O)cc2)C(N)=O)NC1=O (stereo partly drawn) [[^61Cu]Cu-NODAGA-LM3, metal not drawn] has a logD [2] of -2.42 ± 0.04, a tissue uptake at 4 h (in vivo; athymic nude Foxn1+Foxn1+, mouse, Biodistribution Adrenal) of 0.6 ± 0.15 %ID/g and a tissue uptake at 4 h (in vivo; athymic nude Foxn1+Foxn1+, mouse, Biodistribution Blood) of 0.11 ± 0.02 %ID/g. The tissue uptake at 4 h (in vivo; athymic nude Foxn1+Foxn1+, mouse, Biodistribution Heart) was 0.13 ± 0.02 %ID/g, the tissue uptake at 4 h (in vivo; athymic nude Foxn1+Foxn1+, mouse, Biodistribution Intestine) was 0.43 ± 0.08 %ID/g and the tissue uptake at 4 h (in vivo; athymic nude Foxn1+Foxn1+, mouse, Biodistribution Liver) was 0.44 ± 0.06 %ID/g. It also gave a tissue uptake at 4 h (in vivo; athymic nude Foxn1+Foxn1+, mouse, Biodistribution Lung) of 0.32 ± 0.05 %ID/g, a tissue uptake at 4 h (in vivo; athymic nude Foxn1+Foxn1+, mouse, Biodistribution Pancreas) of 0.43 ± 0.12 %ID/g and a tissue uptake at 4 h (in vivo; athymic nude Foxn1+Foxn1+, mouse, Biodistribution Spleen) of 0.14 ± 0.01 %ID/g. For the same compound, the tissue uptake at 4 h (in vivo; athymic nude Foxn1+Foxn1+, mouse, Biodistribution Stomach) was 0.68 ± 0.15 %ID/g, the tissue uptake at 4 h (in vivo; athymic nude Foxn1, mouse, Biodistribution Bone) was 0.31 ± 0.07 %ID/g and the tissue uptake at 4 h (in vivo; athymic nude Foxn1, mouse, Biodistribution Kidneys) was 4.59 ± 0.41 %ID/g. The tissue uptake at 4 h (in vivo; athymic nude Foxn1, mouse, Biodistribution Muscle) was 0.06 ± 0.02 %ID/g, the tissue uptake at 4 h (in vivo; athymic nude Foxn1, mouse, Biodistribution Pituitary) was 2.96 ± 0.62 %ID/g and the tissue uptake at 4 h (in vivo; athymic nude Foxn1, mouse, Biodistribution SSTR2-tumor) was 20.4 ± 4.2 %ID/g. The Kd (SST2 [3]) was 1.41 to 2.92 nM and the “distribution pattern on PET/CT” value (HEK-SST2 xenografts) was “same distribution pattern”.

Reference: patent publication US20240173440A1, “HIGH PURITY COPPER RADIOPHARMACEUTICAL COMPOSITIONS AND DIAGNOSTIC AND THERAPEUTIC USES THEREOF” (Nuclidium AG, priority 2022, published 2024)
